Assay results from patent publication US20220016115A1, “USP19 INHIBITORS FOR USE IN THERAPY” (ALMAC DISCOVERY LIMITED, priority 2018, published 2022).

The molecules below were run against T1, USP19 (Homo sapiens, UniProt O94966) (assay: USP19 fluorescence polarisation (FP) homogeneous assay). Conditions: Ubiquitin-Lys-TAMRA substrate, full-length USP19 2.5 nM, average of at least two duplicate experiments.
T1 sequence (O94966 1-1318): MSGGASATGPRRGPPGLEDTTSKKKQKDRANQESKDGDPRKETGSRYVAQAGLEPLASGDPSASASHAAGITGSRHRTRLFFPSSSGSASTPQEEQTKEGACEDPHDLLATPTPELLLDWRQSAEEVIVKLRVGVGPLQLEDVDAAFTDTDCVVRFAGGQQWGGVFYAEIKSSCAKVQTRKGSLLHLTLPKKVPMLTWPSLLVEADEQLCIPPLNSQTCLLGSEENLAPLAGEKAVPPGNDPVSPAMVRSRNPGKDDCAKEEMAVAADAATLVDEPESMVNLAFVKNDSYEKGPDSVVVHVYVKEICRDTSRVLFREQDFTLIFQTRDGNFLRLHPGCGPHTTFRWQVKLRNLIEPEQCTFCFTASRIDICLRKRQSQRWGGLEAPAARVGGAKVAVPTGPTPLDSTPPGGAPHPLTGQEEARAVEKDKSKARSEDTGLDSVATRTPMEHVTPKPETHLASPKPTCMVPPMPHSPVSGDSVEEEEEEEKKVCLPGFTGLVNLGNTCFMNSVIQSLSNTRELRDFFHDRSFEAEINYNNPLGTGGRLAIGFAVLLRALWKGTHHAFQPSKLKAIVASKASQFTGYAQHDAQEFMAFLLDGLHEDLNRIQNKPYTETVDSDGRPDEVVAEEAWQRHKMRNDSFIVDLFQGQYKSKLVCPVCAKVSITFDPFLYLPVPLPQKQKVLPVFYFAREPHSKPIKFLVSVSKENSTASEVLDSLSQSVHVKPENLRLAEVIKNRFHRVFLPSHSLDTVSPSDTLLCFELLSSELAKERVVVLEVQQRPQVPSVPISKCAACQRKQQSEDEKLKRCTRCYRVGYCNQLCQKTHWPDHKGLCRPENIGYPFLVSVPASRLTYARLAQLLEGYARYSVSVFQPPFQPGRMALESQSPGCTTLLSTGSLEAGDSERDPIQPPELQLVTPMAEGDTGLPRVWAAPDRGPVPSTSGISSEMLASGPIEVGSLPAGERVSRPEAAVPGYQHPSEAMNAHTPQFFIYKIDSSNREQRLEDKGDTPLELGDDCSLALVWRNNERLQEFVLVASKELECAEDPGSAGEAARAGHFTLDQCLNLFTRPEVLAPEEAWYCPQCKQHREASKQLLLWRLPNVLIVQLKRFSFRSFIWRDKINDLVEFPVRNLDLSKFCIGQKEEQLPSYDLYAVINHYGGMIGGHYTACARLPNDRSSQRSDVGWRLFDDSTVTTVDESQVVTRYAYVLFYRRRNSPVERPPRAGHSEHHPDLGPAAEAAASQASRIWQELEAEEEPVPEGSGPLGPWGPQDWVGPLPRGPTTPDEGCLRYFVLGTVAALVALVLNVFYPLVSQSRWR
Type: biochemical
Parameters: Full-length USP19 was purchased from Boston Biochem (E-576); purchased Boston Biochem E-576
Description: Unless otherwise stated, all other reagents were purchased from Sigma. Enzymatic reactions were conducted in black flat bottom polystyrene 384-well plates (Nunc) and 30 μL total volume. […] Inhibitors were stored as 10 mM DMSO stocks in an inert environment (low humidity, dark, low oxygen, room temperature) using the Storage Pod System and serial dilutions were prepared in buffer just prior to the assay (from 200 μM to 2 μM, 8-18 data point curve). Following incubation at RT for 30 min, the enzymatic reactions were initiated by dispensing the Ub substrate (500 nM, 10 μL). FP was measured every 15 min over a period of 90 min (within the linear range of the assay) using a Synergy 4 plate reader (BioTek) exciting at 530 nm and measuring the amount of parallel and perpendicular light at 575 nm. The FP signal was subsequently normalised to the no compound control.

| IC50 [nM] | SMILES |
| --- | --- |
| < 500 | C[C@H](CC1CCCCC1)C(=O)N1CCC(O)(Cn2cnc(-c3ccc(CO)cc3)cc2=O)C(C)(C)C1 (stereo partly drawn) [Example 139, 3-((1-((R)-3-Cyclohexyl-2-methylpropanoyl)-4-hydroxy-3,3-dimethylpiperidin-4-yl)methyl)-6-(4-(hydroxymethyl)phenyl)pyrimidin-4(3H)-one] |
| < 500 | C[C@H](CC1CCCCC1)C(=O)N1CCC(O)(Cn2cnc(-c3ccccc3CN)cc2=O)C(C)(C)C1 (some centres unmarked) [Example 141] |
| < 500 | C[C@H](CC1CCCCC1)C(=O)N1CCC(O)(Cn2cc(C(=O)N(C)C)c(Cl)cc2=O)C2(CCCC2)C1 (stereo partly drawn) [Example 144, 4-Chloro-1-((7-((R)-3-cyclohexyl-2-methylpropanoyl)-10-hydroxy-7-azaspiro[4.5]decan-10-yl)methyl)-N,N-dimethyl-6-oxo-1,6-dihydropyridine-3-carboxamide] |
| < 500 | C[C@H](CC1CCCCC1)C(=O)N1CCC(O)(Cn2cc(C(=O)N(C)C)c(N(C)C)cc2=O)C2(CCCC2)C1 (stereo partly drawn) [Example 145, 1-((7-((R)-3-Cyclohexyl-2-methylpropanoyl)-10-hydroxy-7-azaspiro[4.5]decan-10-yl)methyl)-4-(dimethylamino)-N,N-dimethyl-6-oxo-1,6-dihydropyridine-3-carboxamide] |
| < 500 | C[C@H](CC1CC1)C(=O)N1CCC(O)(Cn2cc(C(=O)N(C)C)c(-c3ccccc3)cc2=O)C2(CCCC2)C1 (stereo partly drawn) [Example 149, 1-((7-((R)-3-Cyclopropyl-2-methylpropanoyl)-10-hydroxy-7-azaspiro[4.5]decan-10-yl)methyl)-N,N-dimethyl-6-oxo-4-phenyl-1,6-dihydropyridine-3-carboxamide] |
| < 500 | CN(C)C(=O)c1cn(C[C@]2(O)CCN(C(=O)[C@H](CO)CC3CCCCC3)CC2(C)C)c(=O)cc1-c1ccccc1 [Example 152, 1-(((S)-1-((S)-3-Cyclohexyl-2-(hydroxymethyl)propanoyl)-4-hydroxy-3,3-dimethylpiperidin-4-yl)methyl)-N,N-dimethyl-6-oxo-4-phenyl-1,6-dihydropyridine-3-carboxamide] |
| 5000 to 50000 | CN(C)C(=O)c1cn(C[C@@]2(O)CCN(C(=O)[C@H](CO)CC3CCCCC3)CC2(C)C)c(=O)cc1-c1ccccc1 [Example 153, 1-(((R)-1-((S)-3-Cyclohexyl-2-(hydroxymethyl)propanoyl)-4-hydroxy-3,3-dimethylpiperidin-4-yl)methyl)-N,N-dimethyl-6-oxo-4-phenyl-1,6-dihydropyridine-3-carboxamide] |
| < 500 | C[C@H](CC1CCCCC1)C(=O)N1CCC(O)(Cn2cc(C(=O)N(C)C)c(-c3ccsc3)cc2=O)C2(CCCC2)C1 (stereo partly drawn) [Example 155, 1-((7-((R)-3-Cyclohexyl-2-methylpropanoyl)-10-hydroxy-7-azaspiro[4.5]decan-10-yl)methyl)-N,N-dimethyl-6-oxo-4-(thiophen-3-yl)-1,6-dihydropyridine-3-carboxamide] |
| < 500 | C[C@H](CC1CCCCC1)C(=O)N1CCC(O)(Cn2cc(C(=O)N(C)C)c(-c3cccc(CO)c3)cc2=O)C2(CCCC2)C1 (stereo partly drawn) [Example 156, 1-((7-((R)-3-Cyclohexyl-2-methylpropanoyl)-10-hydroxy-7-azaspiro[4.5]decan-10-yl)methyl)-4-(3-(hydroxymethyl)phenyl)-N,N-dimethyl-6-oxo-1,6-dihydropyridine-3-carboxamide] |
| < 500 | CN(C)C(=O)c1cn(CC2(O)CCN(C(=O)C(O)CC3CCCCC3)CC23CCCC3)c(=O)cc1-c1ccccc1 (centres unmarked) [Example 157, 1-((7-(3-Cyclohexyl-2-hydroxypropanoyl)-10-hydroxy-7-azaspiro[4.5]decan-10-yl)methyl)-N,N-dimethyl-6-oxo-4-phenyl-1,6-dihydropyridine-3-carboxamide] |
| < 500 | COC[C@H](CC1CCCCC1)C(=O)N1CC[C@@](O)(Cn2cc(C(=O)N(C)C)c(-c3ccccc3)cc2=O)C(C)(C)C1 [Example 160, 1-(((S)-1-((S)-3-Cyclohexyl-2-(methoxymethyl)propanoyl)-4-hydroxy-3,3-dimethylpiperidin-4-yl)methyl)-N,N-dimethyl-6-oxo-4-phenyl-1,6-dihydropyridine-3-carboxamide] |
| < 500 | C[C@H](CC1CCCCC1)C(=O)N1CCC(O)(Cn2cc(C(=O)N(C)C)c(-c3ccc(CO)cc3)cc2=O)C2(CCCC2)C1 (stereo partly drawn) [Example 162, 1-((7-((R)-3-Cyclohexyl-2-methylpropanoyl)-10-hydroxy-7-azaspiro[4.5]decan-10-yl)methyl)-4-(4-(hydroxymethyl)phenyl)-N,N-dimethyl-6-oxo-1,6-dihydropyridine-3-carboxamide] |
| < 500 | CN(C)C(=O)c1cn(C[C@]2(O)CCN(C(=O)[C@H](CCO)CC3CCCCC3)CC2(C)C)c(=O)cc1-c1ccccc1 [Example 164, 1-(((S)-1-((S)-2-(Cyclohexylmethyl)-4-hydroxybutanoyl)-4-hydroxy-3,3-dimethylpiperidin-4-yl)methyl)-N,N-dimethyl-6-oxo-4-phenyl-1,6-dihydropyridine-3-carboxamide] |
| < 500 | CN(C)C(=O)c1cn(C[C@]2(O)CCN(C(=O)[C@H](CO)CC3CCC3)CC2(C)C)c(=O)cc1-c1ccccc1 [Example 166, 1-(((S)-1-((S)-3-Cyclobutyl-2-(hydroxymethyl)propanoyl)-4-hydroxy-3,3-dimethylpiperidin-4-yl)methyl)-N,N-dimethyl-6-oxo-4-phenyl-1,6-dihydropyridine-3-carboxamide] |
| 5000 to 50000 | CN(C)C(=O)c1cn(C[C@@]2(O)CCN(C(=O)[C@H](CO)CC3CCC3)CC2(C)C)c(=O)cc1-c1ccccc1 [Example 167, 1-(((R)-1-((S)-3-Cyclobutyl-2-(hydroxymethyl)propanoyl)-4-hydroxy-3,3-dimethylpiperidin-4-yl)methyl)-N,N-dimethyl-6-oxo-4-phenyl-1,6-dihydropyridine-3-carboxamide] |
| < 500 | C[C@H](CC1CCCCC1)C(=O)N1CCC(O)(Cn2cc(C(=O)N3CCOCC3)c(-c3ccccc3)cc2=O)C(C)(C)C1 (some centres unmarked) [Example 168] |
| < 500 | CC(=O)N1CCN(C(=O)c2cn(CC3(O)CCN(C(=O)[C@H](C)CC4CCCCC4)CC3(C)C)c(=O)cc2-c2ccccc2)CC1 (some centres unmarked) [Example 169] |
| < 500 | C[C@H](CC1CCCCC1)C(=O)N1CCC(O)(Cn2cc(C(=O)N3CCN(C)CC3)c(-c3ccccc3)cc2=O)C(C)(C)C1 (stereo partly drawn) [Example 170, 1-((1-((R)-3-Cyclohexyl-2-methylpropanoyl)-4-hydroxy-3,3-dimethylpiperidin-4-yl)methyl)-5-(4-methylpiperazine-1-carbonyl)-4-phenylpyridin-2(1H)-one] |
| < 500 | CN(C)C(=O)c1cn(CC2(O)CCN(C(=O)[C@@H]3C[C@@H]3c3ccccc3)CC23CCCC3)c(=O)cc1-c1ccccc1 (stereo partly drawn) [Example 174, 1-((10-Hydroxy-7-((1R,2S)-2-phenylcyclopropane-1-carbonyl)-7-azaspiro[4.5]decan-10-yl)methyl)-N,N-dimethyl-6-oxo-4-phenyl-1,6-dihydropyridine-3-carboxamide] |
| < 500 | CC(C)CC(C)C(=O)N1CCC(O)(Cn2cc(C(=O)N(C)C)c(-c3ccccc3)cc2=O)C2(CCCC2)C1 (centres unmarked) [Example 197, 1-((7-(2,4-Dimethylpentanoyl)-10-hydroxy-7-azaspiro[4.5]decan-10-yl)methyl)-N,N-dimethyl-6-oxo-4-phenyl-1,6-dihydropyridine-3-carboxamide] |
